Data set [1] has as its target T1, CCK receptor (pancreas) (Rattus norvegicus, UniProt P30551).
T1 construct: The whole pancreas was dissected free of fat tissue and was homogenized; from tissue; host or cells: rat pancreas membranes (male Sprague-Dawley)
T1 sequence (P30551 1-444): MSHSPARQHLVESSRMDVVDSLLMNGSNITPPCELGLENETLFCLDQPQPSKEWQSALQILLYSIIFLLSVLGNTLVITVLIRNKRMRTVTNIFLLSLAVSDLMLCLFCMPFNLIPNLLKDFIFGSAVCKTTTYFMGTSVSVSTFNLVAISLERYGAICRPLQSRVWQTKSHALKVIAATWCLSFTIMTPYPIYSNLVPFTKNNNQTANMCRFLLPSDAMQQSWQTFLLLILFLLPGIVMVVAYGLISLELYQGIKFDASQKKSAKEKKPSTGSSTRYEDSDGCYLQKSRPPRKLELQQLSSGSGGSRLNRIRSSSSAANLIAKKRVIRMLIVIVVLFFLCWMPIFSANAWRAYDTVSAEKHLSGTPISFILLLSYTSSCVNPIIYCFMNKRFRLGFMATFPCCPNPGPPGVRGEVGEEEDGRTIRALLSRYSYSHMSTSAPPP
The data set is described as follows: CCK Receptor Binding (Pancreas), 125I-CCK-33. The settings on record: for IC50: rat pancreas membranes, 125I-CCK-33, 37° C., 30 minutes; for effect on the 125I-CCK receptor binding assay: added protease inhibitors. The arrangement: species or system rat (male Sprague-Dawley). As to the method: 1. CCK Receptor BindinG (Pancreas)
CCK-33 was radiolabeled with ^125 I-Bolton Hunter reagent (2000 Ci/mmole) as described by Sankara et al. (J. Biol. Chem. 254: 9349-9351, 1979). Receptor bindinG was performed according to Innis and Snyder (Proc. Natl. Acad. Sci. 77: 6917-6921, 1980) with the minor modification of adding the additional protease inhibitors, phenylmethane sulfonyl fluoride and o-phenanthroline. The latter two compounds have no effect on the ^125 I-CCK receptor bindinG assay.
Male Sprague-Dawley rats (200-350 g) were sacrificed by decapitation. The whole pancreas was dissected free of fat tissue and was homogenized in 20 volumes of ice-cold 50 mM, Tris HCl (pH 7.7 at 25° C.) with a Brinkmann Polytron PT 10. The homogenates were centrifuged at 48,000 g for 10 min. Pellets were resuspended in Tris Buffer, centrifuged as above and resuspended in 200 volumes of binding assay buffer (50 mM Tris HCl, pH 7.7 at 25° C., 5 mM dithiothrietol, 0.1 mM bacitracin, 1.2 mM phenylmethane sulfonyl fluoride and 0.5 mM o-phenanthroline). For the binding assay, 25 μl of buffer (for total binding) or unlabeled CCK-8 sulfate to give a final concentration of 1 μM (for nonspecific binding) or the compounds of Formula I (for determination of inhibition of ^125 I CCK binding) and 25 μl of ^125 I-CCK 33 (30,000-40,000 cpm) were added to 450 μl of the membrane suspensions in microfuge tubes. All assays were run in duplicate or triplicate. The reaction mixtures were incubated at 37° C. for 30 minutes and centrifuged in a Beckman Microfuge (4 minutes) immediately after adding 1 ml of ice-cold incubation buffer. The supernatant was aspirated and discarded, pellets were counted with a Beckman gamma 5000. For Scatchard analysis (Ann. N.Y. Acad. Sci. 51: 660, 1949), ^125 I CCK 33 was progressively diluted with increasing concentrations of CCK 33.
1. Effect of The Compounds of Formula I on ^125 I-CCK-33 receptor binding
The preferred compounds of Formula I are those which inhibited specific ^125 I-CCK-33 binding in a concentration dependent manner.
A Ki value (dissociation constant of inhibitor) of the compounds of Formula I was estimated.

Data set [2] concerns the target T2, CCK receptor (brain, cerebral cortex) (Cavia porcellus, UniProt H0VZC5).
T2 construct: Cerebral cortex was dissected and used as a receptor source; from tissue; host or cells: guinea pig cerebral cortex membranes (male Hartley)
T2 sequence (H0VZC5 1-426): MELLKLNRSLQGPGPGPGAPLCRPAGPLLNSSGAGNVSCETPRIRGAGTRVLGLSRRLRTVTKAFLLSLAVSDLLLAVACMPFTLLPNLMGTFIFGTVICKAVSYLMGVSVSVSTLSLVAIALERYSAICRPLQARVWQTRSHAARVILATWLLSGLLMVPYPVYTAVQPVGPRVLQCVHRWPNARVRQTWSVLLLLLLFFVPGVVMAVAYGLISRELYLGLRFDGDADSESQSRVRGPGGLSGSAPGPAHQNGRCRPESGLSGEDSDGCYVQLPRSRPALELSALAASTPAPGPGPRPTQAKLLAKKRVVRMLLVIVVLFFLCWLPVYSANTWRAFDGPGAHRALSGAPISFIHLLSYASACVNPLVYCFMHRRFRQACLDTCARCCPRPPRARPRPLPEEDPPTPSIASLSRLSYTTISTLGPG
In words: CCK Receptor Binding (Brain), 125I-CCK-33. The arrangement: species or system guinea pig (male Hartley). The conditions noted are these: guinea pig cerebral cortex, 25° C., 2 hours. The method, then:
2. CCK Receptor Binding (Brain)
CCK 33 was radiolabeled and the binding was performed according to the description for the pancreas method with modifications according to Saito et al., J. Neurochem. 37:483-490, 1981.
Male Hartley guinea pigs (300-500 g) were sacrificed by decapitation and the brains were removed and placed in ice-cold 50 mM, Tris HCl plus 7.58 g/1 Trizma-7.4 (pH 7.4 at 25° C.). Cerebral cortex was dissected and used as a receptor source. Each gram of fresh guinea pig brain tissue was homogenized in 10 ml of Tris/Trizma buffer with a Brinkman polytron PT-10. The homogenates were centrifuged at 42,000 g for 15 minutes. Pellets were resuspended in Tris Buffer, centrifuged as above and resuspended in 200 volumes of binding assay buffer (10 mM N-2 -hydroxyethyl-piperazine-N'-2-ethane sulfonic acid (HEPES), 5 mM MgCl2, 0.25 mg/ml bacitracin, 1 mM ethylene glycol-bis-(β-aminoethylether-N,N'-tetraacetic acid) (EGTA), and 0.4% bovine serum albumin (BSA)). For the binding assay, 25 μl of buffer (for total binding) or unlabeled CCK-8 sulfate to give a final concentration of 1 μm (for nonspecific binding) or the compounds of Formula I (for determination of inhibition of ^125 I CCK binding) and 25 μl of ^125 I-CCK-33 (30,000-40,000 cpm) were added to 450 μl of the membrane suspensions in microfuge tubes. All assays were run in duplicate or triplicate. The reaction mixtures were incubated at 25° C. for 2 hours and centrifuged in a Beckman Microfuge (4 minutes) immediately after adding 1 ml of ice cold incubation buffer. The supernatant was aspirated and discarded, pellets were counted with a Beckman gamma 5000.

Data set [3] concerns the target T3, gastrin receptor (gastric glands) (Cavia porcellus, UniProt H0VZC5).
T3 construct: from tissue; host or cells: guinea pig gastric mucosal glands (male Hartley)
T3 sequence (H0VZC5 1-426): T2 sequence (H0VZC5 1-426)
In words: Gastrin Receptor Binding in Guinea Pig Gastric Glands, 125I-gastrin. The arrangement: species or system guinea pig (male Hartley). The conditions noted are these: 25° C., 30 minutes. As to the method: Gastrin antagonist activity of compounds of Formula I was determined using the following assay.
Gastrin Receptor Binding in Guinea Pig Gastric Glands Preparation of guinea pig gastric mucosal glands
Guinea pig gastric mucosal glands were prepared by the procedure of Berglingh and Obrink Acta Physiol. Scand. 96: 150 (1976) with a slight modification according to Praissman et al. C. J. Receptor Res. 3: (1983). Gastric mucosa from guinea pigs ( 300-500 g body weight, male Hartley) were washed thoroughly and minced with fine scissors in standard buffer consisting of the following: 130 mM NaCl, 12 mM NaHCo3, 3 mM NaH2 PO4, 3 mM Na2 HPO4, 3 mM K2 HPO4, 2 mM MgSO4, 1 mM CaCl2, 5 mM glucose and 4 mM L-glutamine, 25 mM HEPES at pH 7.4. The minced tissues were washed and then incubated in a 37° C. shaker bath for 40 minutes with the buffer containing 0.1% collagenase and 0.1% BSA and bubbled with 95% o2 and 5% CO2. The tissues were passed twice through a 5 ml glass syringe to liberate the gastric glands, and then filtered through 200 mesh nylon. The filtered glands were centrifuged at 270 g for 5 minutes and washed twice by resuspension and centrifugation.
The washed guinea pig gastric glands prepared as above were resuspended in 25 ml of standard buffer containing 0.25 mg/ml of bacitracin. For binding studies, to 220 μl of gastric glands in triplicate tubes, 10 μl of buffer (for total binding) or gastrin (1 μM final concentration, for nonspecific binding) or test compound and 10 μl of ^125 I-gastrin (NEN, 2200 Ci/mmole, 25 pM final) or ^3 H pentagastrin (NEN 22 Ci/mmole, 1 nM final) were added. The tubes were aerated with 95% O2 and 5% CO2 and capped. The reaction mixtures after incubation at 25° C. for 30 minutes were filtered under reduced pressure on glass G/F B filters (Whatman) and immediately washed further with 4×4 ml of standard buffer containing 0.1% BSA. The radioactivity on the filters was measured using a Beckman gamma 5500 for ^125 I-gastrin or liquid scintillation counting for ^3 H-pentagastrin.

Data set [4] deals with CCK. The settings on record: recently reported, J. M. Howard et al.; cited from earlier work.
Data set [5] has as its system proteases. The conditions noted are these: limits duration of activity; cited from earlier work.

Non-standard residues stand in square brackets, D forms with d. Residues, ends and D or L forms follow the SMILES beside them. *: point of attachment. sY = N[C@@H](Cc1ccc(OS(=O)(=O)O)cc1)C(=O)O; Cbz = O=C(OCc1ccccc1)* Where only a bound is given, the exact number is not on record here.

What is called IC50 is the midpoint of a concentration-inhibition curve. Low readings indicate inhibition by little substance, high ones a need for much substance.

`O=C(Cc1ccccc1)Nc1cc2c(cn1)[nH]c1ccccc12` [Example 9, N-9H-Pyrido(3,4-b)indol-3-yl benzene Acetamide]: the 50% inhibitory concentration (IC50) in data set [1] stood at 0.04 µM; in data set [2], 34 µM; in data set [3], 14 µM.
As to `CSCC[C@H](NC(=O)[C@H](Cc1ccc(OS(=O)(=O)O)cc1)NC(=O)OCc1ccccc1)C(=O)NCC(=O)N[C@@H](Cc1c[nH]c2ccccc12)C(=O)N[C@@H](CCSC)C(=O)N[C@@H](CC(=O)O)C(N)=O` [Cbz-Tyr(SO3 H)-Met-Gly-Trp-Met-Asp-NH2] (Cbz-[sY]MGWMD-NH2), in data set [4], the CCK agonist/antagonist character result is on record as “partial agonist”. Further, in data set [5], the degradation by proteases entry is recorded as “liable to degradation by proteases”.
Regarding `O=C(Cc1c[nH]c2ccccc12)Nc1cc2c(cn1)[nH]c1ccccc12` [Example 7, N-9H-Pyrido(3,4-b)indol-3-yl-1H-indole 3-acetamide], the IC50 in data set [1] was found to be 0.024 µM. That is a double-digit nanomolar value.
As for `Nc1cc2c(cn1)[nH]c1ccccc12` [Example 2, 3-Amino-9H-pyrido(3,4-b)indole], the IC50 in data set [1], in data set [2] and in data set [3] was more than 100 µM in each case.
`O=C(Nc1cc2c(cn1)[nH]c1ccccc12)c1ccc(Cl)cc1` [Example 3, 4-Chloro-N-9H-pyrido(3.4-b)indol-3-yl-benzamide] registered an IC50 in data set [1] of 3.5 µM.
Consider `O=C(Nc1cc2c(cn1)[nH]c1ccccc12)c1cccs1` [Example 5, N-9H-Pyrido(3,4-b)indol-3-yl 2 thiophene Carboxamide], for which the IC50 was 9.8 µM in data set [1], approximately 130 µM in data set [2] and more than 100 µM in data set [3].
With `c1cnc2c(c1)ccc1cccnc12` [o-phenanthroline, reference compound], in data set [1], the “effect on the 125I-CCK receptor binding assay” value is listed as “no effect”.
Turning to `Cn1c(C(=O)Nc2cc3c(cn2)[nH]c2ccccc23)cc2ccccc21` [Example 6, N-9H-Pyrido(3,4-b)indol-3-yl-1-methyl-1H-indole-2-carboxamide], the IC50 is 0.71 µM in data set [1], more than 100 µM in data set [2] and more than 100 µM in data set [3].
As for `O=S(=O)(F)Cc1ccccc1` [phenylmethane sulfonyl fluoride, reference compound], the “effect on the 125I-CCK receptor binding assay” value in data set [1] is “no effect”.
Take `O=C(Nc1cc2c(cn1)[nH]c1ccccc12)c1ccccc1` [Example 8, N-9H-Pyrido(3,4-b)indol-3-yl benzamide]: the figures for the IC50 in data set [1], in data set [2] and in data set [3] were 7.1 µM, 223 µM and more than 100 µM, respectively.
On to `O=C(CCc1ccccc1)Nc1cc2c(cn1)[nH]c1ccccc12` [Example 10, N-9H-Pyrido(3,4-b)indol-3-yl benzene Propanamide], for which the IC50 in data set [1] came out at 0.33 µM.
`O=C(Nc1ccc(Cl)cc1)Nc1cc2c(cn1)[nH]c1ccccc12` [Example 4, N-(4-Chlorophenyl)-N^1 9-H-pyrido(3,4-b)indol-3-yl-urea] displayed a 50% inhibitory concentration (IC50) in data set [1] of 0.085 µM.

Values taken from patent publication US5223509A, “β-carbolines as cholecystokinin and gastrin antagonists” (priority 1992, dated 1993).
